Data: paper PMC9596378, “Discovery and molecular basis of subtype-selective cyclophilin inhibitors” (Nature Chemical Biology, 2022)
Like-named read-outs stand apart in the source and are kept apart here.

How the values were obtained:
CypD = CypD (Homo sapiens, UniProt P30405); assay: Chymotrypsin coupled prolyl-isomerase assay
CypB = molecular target: T1, CypB (Homo sapiens, UniProt P23284); assay: biochemical; settings: wild-type CypB; read-out: Wild-Type Cyclophilin Prolyl Isomerase Inhibition IC50 Values, CypB
T1 construct: PPIB (UniProtKB Entry P23284: residues 34–216); His6 with TEV site (2BT vector leader) (N); made in house; host or cells: E. coli BL21(DE3)
T1 sequence (P23284 34-216): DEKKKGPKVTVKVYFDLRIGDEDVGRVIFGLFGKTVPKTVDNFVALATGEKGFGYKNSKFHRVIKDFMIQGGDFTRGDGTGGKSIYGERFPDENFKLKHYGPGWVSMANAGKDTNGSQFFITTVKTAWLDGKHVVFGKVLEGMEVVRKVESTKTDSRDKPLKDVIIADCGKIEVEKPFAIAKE
How it was run: (§1)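 Steps: cyclophilin plus compound 5 min at 2–3 °C; α-chymotrypsin added, 5 min more; Suc-AAPF-AMC substrate in LiCl/trifluoroethanol injected and fluorescence followed 330 s. Finals: 5 nM enzyme, 25 µM chymotrypsin, 5 µM substrate, 0.25% DMSO.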

Cyp40 = Cyp40 (Homo sapiens, UniProt Q08752); assay: Chymotrypsin coupled prolyl-isomerase assay; settings: Wild-Type Cyclophilin Prolyl Isomerase Inhibition IC50 Values, Cyp40, wild-type Cyp40
Chain of Cyp40 (Q08752 1-183): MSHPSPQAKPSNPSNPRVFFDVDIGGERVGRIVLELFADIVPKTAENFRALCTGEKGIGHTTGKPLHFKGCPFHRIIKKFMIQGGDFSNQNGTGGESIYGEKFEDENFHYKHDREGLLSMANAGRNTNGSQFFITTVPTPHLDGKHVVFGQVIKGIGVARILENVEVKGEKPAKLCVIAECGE
How it was run: as §1

NKTR = molecular target: T2, NKTR (Homo sapiens, UniProt P30414); assay: Chymotrypsin coupled prolyl-isomerase assay; type: biochemical
T2 construct: NKTR (UniProtKB Entry P30414: residues 7–179); host or cells: E. coli BL21(DE3)
T2 sequence (P30414 7-179): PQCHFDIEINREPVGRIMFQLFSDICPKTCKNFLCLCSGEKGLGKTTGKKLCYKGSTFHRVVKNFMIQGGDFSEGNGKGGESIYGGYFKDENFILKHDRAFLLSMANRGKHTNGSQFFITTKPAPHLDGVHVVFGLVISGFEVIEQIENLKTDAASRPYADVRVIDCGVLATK
Experimental: (§2) Adapting a previously described protocol[51], with an Agilent Bravo Velocity 11 with a 384ST head, 90 µL assay buffer (25 mM HEPES pH 7.3, 100 mM NaCl, 0.01% Triton X-100) containing 5.28 nM cyclophilin was added into a flat, clear-bottom, black 384-well plate pre-chilled in a Corning CoolBox at 2–3 °C. Five microliters of compound pre-dissolved in 5% DMSO/assay buffer was then added to appropriate wells and incubated at 2–3 °C for 5 min. Five microliters of 0.5 mM α-chymotrypsin from bovine pancreas (Type II, lyophilized powder, Millipore-Sigma) in 20% 1 mM HCl/Assay Buffer was then added to each well and incubated at 2–3 °C for 5 min. […] Using the internal liquid handling system of the FLIPR, 1 µL 0.5 mM Suc-AAPF-AMC (Chymotrypsin Substrate II, Millipore-Sigma) dissolved in 0.55 M LiCl/2,2,2-trifluoroethanol was added to each well, which was then mixed for 5 s, followed by immediate fluorescence measurements every 1 s for 330 s using a 360–380 nm excitation LED module and a 400–460 nm emission filter. Final concentrations of the plate include 5 nM cyclophilin, 0.25% DMSO, 25 µM α-chymotrypsin, 5 µM Suc-AAPF-AMC. Raw fluorescence data was analyzed by non-linear regression analysis with Prism v.9 by fitting one-phase association curves to each well. Analyses were halted after the calculated maximum fluorescent value owing to observed fluorescent bleaching during the sustained fluorescent plateau. Rate constants calculated for each well (s^−1) were then normalized to substrate only (no prolyl-isomerase) and enzyme + substrate only controls. IC50 values were calculated as the value at which 50% inhibition was achieved on the non-linear regression fitted curve of each compound.

PPIL1 = molecular target: T3, PPIL1 (Homo sapiens, UniProt Q9Y3C6); assay: Chymotrypsin coupled prolyl-isomerase assay; type: biochemical; settings: wild-type PPIL1; read-out: Wild-Type Cyclophilin Prolyl Isomerase Inhibition IC50 Values, PPIL1
T3 construct: PPIL1 (UniProtKB Entry Q9Y3C6: residues 1–166); made in house; host or cells: E. coli BL21(DE3)
T3 sequence (Q9Y3C6 1-166): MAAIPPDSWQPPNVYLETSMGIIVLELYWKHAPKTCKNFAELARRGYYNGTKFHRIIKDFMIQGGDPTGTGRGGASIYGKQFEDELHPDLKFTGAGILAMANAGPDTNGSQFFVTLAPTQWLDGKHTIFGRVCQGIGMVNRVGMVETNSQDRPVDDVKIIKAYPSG
Experimental: as §2

PPWD1 = molecular target: T4, PPWD1 (Homo sapiens, UniProt Q96BP3); assay: Chymotrypsin coupled prolyl-isomerase assay; type: biochemical; settings: wild-type PPWD1; read-out: Wild-Type Cyclophilin Prolyl Isomerase Inhibition IC50 Values, PPWD1
T4 construct: PPWD1 (UniProtKB Entry Q96BP3: residues 473–646); host or cells: E. coli BL21(DE3)
T4 sequence (Q96BP3 473-646): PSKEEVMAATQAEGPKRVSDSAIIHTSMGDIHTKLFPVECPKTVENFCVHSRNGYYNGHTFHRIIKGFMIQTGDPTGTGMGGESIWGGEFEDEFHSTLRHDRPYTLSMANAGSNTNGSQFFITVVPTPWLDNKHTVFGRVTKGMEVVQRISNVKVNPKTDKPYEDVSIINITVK

Chain of CypD (P30405 45-207): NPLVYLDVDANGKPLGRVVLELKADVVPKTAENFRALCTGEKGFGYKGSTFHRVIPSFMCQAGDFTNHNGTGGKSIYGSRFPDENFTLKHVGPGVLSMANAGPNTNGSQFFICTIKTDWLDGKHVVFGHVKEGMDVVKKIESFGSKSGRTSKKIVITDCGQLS

NCCOCCNC(=O)C1CCNC(=O)C=CC(=O)N2CCCC(C2)C(=O)NC(Cc2ccco2)C(=O)NCc2ccccc2CC(=O)N1 (stereo not drawn) [JOMBt]
IC50 (CypD): 17 µM
IC50 (CypD; IC50 CypD trans, trans olefin isomer): 17 ± 2 µM
IC50 (CypD; Wild-Type Cyclophilin Prolyl Isomerase Inhibition IC50 Values, CypD, wild-type CypD): 17 µM
IC50 (CypB): 5 µM
IC50 (Cyp40): 19 µM
IC50 (NKTR; prolyl-isomerase inhibition, 5 nM cyclophilin, read-out: IC50 NKTR): ~60 µM
IC50 (NKTR; wild-type NKTR, read-out: Wild-Type Cyclophilin Prolyl Isomerase Inhibition IC50 Values, NKTR): 60 µM
IC50 (PPIL1): 40 µM
IC50 (PPWD1): > 100 µM
